From PMC10408569, “Recruitment of hexahydroquinoline as anticancer scaffold targeting inhibition of wild and mutants EGFR (EGFR^WT, EGFR^T790M, and EGFR^L858R)” (Journal of Enzyme Inhibition and Medicinal Chemistry, 2023)

Legend:
Assay in all cases: NCI-60 anticancer screening (SRB)
Format in all cases: cell-based
HS 578T = details: Homo sapiens; HS 578T, breast cancer; one dose 10 μM; read-out: Growth Inhibition Percentage (GI %)
RPMI-8226 = details: Homo sapiens; RPMI-8226, leukemia; one dose 10 μM; read-out: Growth Inhibition Percentage (GI %)
SF-539 = details: Homo sapiens; SF-539, CNS cancer; one dose 10 μM; read-out: Growth Inhibition Percentage (GI %)
CCRF-CEM = details: Homo sapiens, leukemia, one dose 10 μM, read-out: Growth Inhibition Percentage (GI %)
U251 = details: Homo sapiens, U-251; U251, CNS cancer; one dose 10 μM; read-out: Growth Inhibition Percentage (GI %)
RXF 393 = details: Homo sapiens; RXF 393, renal cancer; one dose 10 μM; read-out: Growth Inhibition Percentage (GI %)
TK-10 = details: Homo sapiens; TK-10, renal cancer; one dose 10 μM; read-out: Growth Inhibition Percentage (GI %)
OVCAR-3 = details: Homo sapiens; OVCAR-3, ovarian cancer; one dose 10 μM; read-out: Growth Inhibition Percentage (GI %)
MDA-MB-468 = details: Homo sapiens; MDA-MB-468, breast cancer; one dose 10 μM; read-out: Growth Inhibition Percentage (GI %)
SN 12C = details: Homo sapiens, SN12C; SN 12C, renal cancer; one dose 10 μM; read-out: Growth Inhibition Percentage (GI %)
DU-145 = details: Homo sapiens; DU-145, prostate cancer; one dose 10 μM; read-out: Growth Inhibition Percentage (GI %)
LOX IMVI = details: Homo sapiens, melanoma, one dose 10 μM, read-out: Growth Inhibition Percentage (GI %)
COLO 205 = details: Homo sapiens; COLO 205, colon cancer; one dose 10 μM; read-out: Growth Inhibition Percentage (GI %)
HCC-2998 = details: Homo sapiens; HCC-2998, colon cancer; one dose 10 μM; read-out: Growth Inhibition Percentage (GI %)
ACHN = details: Homo sapiens, renal cancer, one dose 10 μM, read-out: Growth Inhibition Percentage (GI %)
SF-268 = details: Homo sapiens; SF-268, CNS cancer; one dose 10 μM; read-out: Growth Inhibition Percentage (GI %)
OVCAR-5 = details: Homo sapiens; OVCAR-5, ovarian cancer; one dose 10 μM; read-out: Growth Inhibition Percentage (GI %)
MCF7 = details: Homo sapiens; MCF7, breast cancer; one dose 10 μM; read-out: Growth Inhibition Percentage (GI %)
SF-295 = details: Homo sapiens; SF-295, CNS cancer; one dose 10 μM; read-out: Growth Inhibition Percentage (GI %)
SK-MEL-2 = details: Homo sapiens; SK-MEL-2, melanoma; one dose 10 μM; read-out: Growth Inhibition Percentage (GI %)
BT-549 = details: Homo sapiens; BT-549, breast cancer; one dose 10 μM; read-out: Growth Inhibition Percentage (GI %)
SNB-19 = details: Homo sapiens; SNB-19, CNS cancer; one dose 10 μM; read-out: Growth Inhibition Percentage (GI %)
NCI/ADR-RES = details: Homo sapiens, ovarian cancer, one dose 10 μM, read-out: Growth Inhibition Percentage (GI %)
NCI-H322M = details: Homo sapiens, NSC lung cancer, one dose 10 μM, read-out: Growth Inhibition Percentage (GI %)
HCT-116 = details: Homo sapiens; HCT-116, colon cancer; one dose 10 μM; read-out: Growth Inhibition Percentage (GI %)
NCI-H522 = details: Homo sapiens; NCI-H522, NSC lung cancer; one dose 10 μM; read-out: Growth Inhibition Percentage (GI %)
NCI-H226 = details: Homo sapiens; NCI-H226, NSC lung cancer; one dose 10 μM; read-out: Growth Inhibition Percentage (GI %)
UO-31 = details: Homo sapiens; UO-31, renal cancer; one dose 10 μM; read-out: Growth Inhibition Percentage (GI %)

| SMILES | inhibition at 10 µM (HS 578T) [%] | inhibition at 10 µM (RPMI-8226) [%] | inhibition at 10 µM (SF-539) [%] | inhibition at 10 µM (CCRF-CEM) [%] | inhibition at 10 µM (U251) [%] | inhibition at 10 µM (RXF 393) [%] | inhibition at 10 µM (TK-10) [%] | inhibition at 10 µM (OVCAR-3) [%] | inhibition at 10 µM (MDA-MB-468) [%] | inhibition at 10 µM (SN 12C) [%] | inhibition at 10 µM (DU-145) [%] | inhibition at 10 µM (LOX IMVI) [%] | inhibition at 10 µM (COLO 205) [%] | inhibition at 10 µM (HCC-2998) [%] | inhibition at 10 µM (ACHN) [%] | inhibition at 10 µM (SF-268) [%] | inhibition at 10 µM (OVCAR-5) [%] | inhibition at 10 µM (MCF7) [%] | inhibition at 10 µM (SF-295) [%] | inhibition at 10 µM (SK-MEL-2) [%] | other results |
| --- | --- | --- | --- | --- | --- | --- | --- | --- | --- | --- | --- | --- | --- | --- | --- | --- | --- | --- | --- | --- | --- |
| CCOC(=O)C1=C(N)N(c2ccc(C)cc2)C2=C(C(=O)CC(C)(C)C2)C1c1ccc(Cl)cc1 (racemic) [8d, (±)-Ethyl 2-amino-4–(4-chlorophenyl)-7,7-dimethyl-1–(4-methylphenyl)-5-oxo-1,4,5,6,7,8-hexahydroquinoline-3-carboxylate] | < 10 | < 10 | < 10 | < 10 | < 10 | < 10 | < 10 | 16 | 18 | < 10 | < 10 | < 10 | 23 | < 10 | < 10 | < 10 | < 10 | 35 | < 10 | < 10 | inhibition at 10 µM (BT-549): < 10%; inhibition at 10 µM (SNB-19): < 10%; inhibition at 10 µM (NCI/ADR-RES): < 10%; inhibition at 10 µM (NCI-H322M): < 10%; inhibition at 10 µM (HCT-116): 14%; inhibition at 10 µM (NCI-H522): 15%; inhibition at 10 µM (NCI-H226): < 10%; inhibition at 10 µM (UO-31): 16% |
| CCOC(=O)C1=C(N)N(c2ccccc2)C2=C(C(=O)CC(C)(C)C2)C1c1ccc(OC)cc1 (racemic) [8f, (±)-Ethyl2-amino-4–(4-methoxyphenyl)-7,7-dimethyl-5-oxo-1-phenyl-1,4,5,6,7,8-hexahydroquinoline-3-carboxylate] | 12 | 15 | < 10 | < 10 | < 10 | < 10 | < 10 | < 10 | < 10 | < 10 | < 10 | < 10 | < 10 | < 10 | < 10 | < 10 | < 10 | 13 | < 10 | 16 | inhibition at 10 µM (BT-549): < 10%; inhibition at 10 µM (SNB-19): 14%; inhibition at 10 µM (NCI/ADR-RES): < 10%; inhibition at 10 µM (NCI-H322M): < 10%; inhibition at 10 µM (HCT-116): 14%; inhibition at 10 µM (NCI-H522): < 10%; inhibition at 10 µM (NCI-H226): 12%; inhibition at 10 µM (UO-31): < 10% |
| CCOC(=O)C1=C(N)N(c2ccc(C)cc2)C2=C(C(=O)CC(C)(C)C2)C1c1ccc(OC)cc1 (racemic) [8g, (±)-Ethyl 2-amino-4–(4-methoxyphenyl)-7,7-dimethyl-1–(4-methylphenyl)-5-oxo-1,4,5,6,7,8-hexahydroquinoline-3-carboxylate] | < 10 | < 10 | < 10 | < 10 | < 10 | < 10 | < 10 | < 10 | < 10 | < 10 | < 10 | < 10 | < 10 | < 10 | < 10 | < 10 | < 10 | < 10 | < 10 | < 10 | inhibition at 10 µM (BT-549): < 10%; inhibition at 10 µM (SNB-19): < 10%; inhibition at 10 µM (NCI/ADR-RES): < 10%; inhibition at 10 µM (NCI-H322M): < 10%; inhibition at 10 µM (HCT-116): < 10%; inhibition at 10 µM (NCI-H522): < 10%; inhibition at 10 µM (NCI-H226): < 10%; inhibition at 10 µM (UO-31): < 10% |
| CCOC(=O)C1=C(N)N(c2ccc(Cl)cc2)C2=C(C(=O)CC(C)(C)C2)C1c1ccc(OC)cc1 (racemic) [8h, (±)-Ethyl 2-amino-1–(4-chlorophenyl)-4–(4-methoxyphenyl)-7,7-dimethyl-5-oxo-1,4,5,6,7,8-hexahydroquinoline-3-carboxylate] | < 10 | < 10 | < 10 | < 10 | < 10 | < 10 | < 10 | < 10 | < 10 | < 10 | < 10 | < 10 | < 10 | < 10 | < 10 | < 10 | < 10 | < 10 | < 10 | < 10 | inhibition at 10 µM (BT-549): 25%; inhibition at 10 µM (SNB-19): < 10%; inhibition at 10 µM (NCI/ADR-RES): < 10%; inhibition at 10 µM (NCI-H322M): < 10%; inhibition at 10 µM (HCT-116): < 10%; inhibition at 10 µM (NCI-H522): < 10%; inhibition at 10 µM (NCI-H226): < 10%; inhibition at 10 µM (UO-31): < 10% |
| CCOC(=O)C1=C(N)N(c2ccccc2)C2=C(C(=O)CC(C)(C)C2)C1c1ccc([N+](=O)[O-])cc1 (racemic) [8i, (±)-Ethyl 2-amino-4–(4-nitrophenyl)-7,7-dimethyl-5-oxo-1-phenyl-1,4,5,6,7,8-hexahydroquinoline-3-carboxylate] | < 10 | 17 | < 10 | 11 | < 10 | < 10 | < 10 | < 10 | < 10 | < 10 | < 10 | 11 | < 10 | < 10 | 12 | < 10 | < 10 | 16 | < 10 | < 10 | inhibition at 10 µM (BT-549): < 10%; inhibition at 10 µM (SNB-19): < 10%; inhibition at 10 µM (NCI/ADR-RES): < 10%; inhibition at 10 µM (NCI-H322M): < 10%; inhibition at 10 µM (HCT-116): 16%; inhibition at 10 µM (NCI-H522): 21%; inhibition at 10 µM (NCI-H226): 12%; inhibition at 10 µM (UO-31): < 10% |
